Numbers after ± are expanded uncertainties.
How the values were obtained:
[1] = refractive index (Na D-line) (dimensionless); conditions: 293.15 K; 101.33 kPa; Liquid; Standard Abbe refractometry
[2] = Liquid; for mass density: 293.15 K, 101.33 kPa, Vibrating tube method; for Normal boiling temperature: Ebulliometric method (Recirculating still)

Work on CC(C)CO [2-methyl-1-propanol] yielded a refractive index [1] of 1.3955 ± 0.0008, a mass density [2] of 801.7 ± 1 kg/m3 and a Normal boiling temperature [2] of 107.00 ± 0.5 °C.

Compound CCO [ethanol] has a refractive index [1] of 1.3616 ± 0.0008, a mass density [2] of 790 ± 1 kg/m3 and a Normal boiling temperature [2] of 78.40 ± 0.5 °C.

In the case of CCCCCO [pentan-1-ol], the refractive index [1] is reported as 1.4087 ± 0.0008, the mass density [2] is reported as 813.7 ± 1 kg/m3 and the Normal boiling temperature [2] is reported as 137.80 ± 0.51 °C.

Work on O [water] yielded a refractive index [1] of 1.3328 ± 0.0008, a mass density [2] of 998.4 ± 1 kg/m3 and a Normal boiling temperature [2] of 100.1 ± 0.5 °C.

Reference: the NIST ThermoML archive (doi:10.1016/j.fluid.2013.03.029)
